Usually EC50 stands for the concentration at which the effect is half-maximal. Read a high EC50 as a less potent agent. For orientation: pEC50 means the EC50 on a negative log10 scale, so that one unit is a factor of ten. A lower pEC50 goes with a high EC50.

pEC50: −log10 of the molar value. Values after ≈ are worked out from the molar mass of the structure shown. Counter-ions that a name gives are not always drawn. Like-named read-outs stand apart in the source and are kept apart here.

One data set has as its target adenosine A1 receptor (Homo sapiens (Human), UniProt P30542). The data set is described as follows: Indirect determination of adenosine agonism by gene expression (luciferase reporter), A1 cells. The settings on record: CHO cells stably transfected with adenosine A1 receptor; 1 μM forskolin; 50% inhibition of luciferase response. The format is cell-based. From the text: (§1) B-1. Indirect Determination of the Adenosine Agonism by Way of Gene Expression
(§2) Cells of the CHO (Chinese Hamster Ovary) permanent line are transfected stably with the cDNA for the adenosine receptor subtypes A1, A2a and A2b. The adenosine A1 receptors are coupled to the adenylate cyclase by way of Gi proteins, while the adenosine A2a and A2b receptors are coupled by way of Gs proteins. In correspondence with this, the formation of cAMP in the cell is inhibited or stimulated, respectively. After that, expression of the luciferase is modulated by way of a cAMP-dependent promoter. The luciferase test is optimized, with the aim of high sensitivity and reproducibility, low variance and good suitability for implementation on a robot system, by varying several test parameters, such as cell density, duration of the growth phase and the test incubation, forskolin concentration and medium composition. The following test protocol is used for pharmacologically characterizing cells and for the robot-assisted substance screening:
(§3) The stock cultures are grown, at 37° C. and under 5% CO2, in DMEM/F12 medium containing 10% FCS (fetal calf serum) and in each case split 1:10 after 2-3 days. Test cultures are seeded in 384-well plates with 2000 cells per well and grown at 37° C. for approx. 48 hours. The medium is then replaced with a physiological sodium chloride solution (130 mM sodium chloride, 5 mM potassium chloride, 2 mM calcium chloride, 20 mM HEPES, 1 mM magnesium chloride hexahydrate, 5 mM sodium bicarbonate, pH 7.4). The substances to be tested, which are dissolved in DMSO, are pipetted into the test cultures (maximum final concentration of DMSO in the test mixture: 0.5%) in a dilution series of from 5×10^−11 M to 3×10^−6 M (final concentration). 10 minutes later, forskolin is added to the A1 cells and all the cultures are subsequently incubated at 37° C. for four hours. After that, 35 μl of a solution which is composed of 50% lysis reagent (30 mM disodium hydrogenphosphate, 10% glycerol, 3% TritonX100, 25 mM TrisHCl, 2 mM dithiotreitol (DTT), pH 7.8) and 50% luciferase substrate solution (2.5 mM ATP, 0.5 mM luciferin, 0.1 mM coenzyme A, 10 mM tricine, 1.35 mM magnesium sulfate, 15 mM DTT, pH 7.8) are added to the test cultures, which are shaken for approx. 1 minute and the luciferase activity is measured using a camera system. The EC50 values are determined, i.e., the concentrations at which 50% of the luciferase response is inhibited in the case of the A1 cell, and, respectively, 50% of the maximum stimulation with the corresponding substance is achieved in the case of the A2b and A2a cells. […] Pharmacol., 357, 1-9 (1998)].
(§4) Table A below lists the EC50 values of representative working examples for the receptor stimulation on adenosine A1, A2a and A2b receptor subtypes: […]
(In general: A reporter such as luciferase makes a cellular process visible.)

In the next data set the target is adenosine A2a receptor (Homo sapiens (Human), UniProt P29274). The data set is described as follows: Indirect determination of adenosine agonism by gene expression (luciferase reporter), A2a cells. As to conditions: CHO cells stably transfected with adenosine A2a receptor, 50% of maximum stimulation. It counts as cell-based.
Sequence of adenosine A2a receptor (P29274 whole entry): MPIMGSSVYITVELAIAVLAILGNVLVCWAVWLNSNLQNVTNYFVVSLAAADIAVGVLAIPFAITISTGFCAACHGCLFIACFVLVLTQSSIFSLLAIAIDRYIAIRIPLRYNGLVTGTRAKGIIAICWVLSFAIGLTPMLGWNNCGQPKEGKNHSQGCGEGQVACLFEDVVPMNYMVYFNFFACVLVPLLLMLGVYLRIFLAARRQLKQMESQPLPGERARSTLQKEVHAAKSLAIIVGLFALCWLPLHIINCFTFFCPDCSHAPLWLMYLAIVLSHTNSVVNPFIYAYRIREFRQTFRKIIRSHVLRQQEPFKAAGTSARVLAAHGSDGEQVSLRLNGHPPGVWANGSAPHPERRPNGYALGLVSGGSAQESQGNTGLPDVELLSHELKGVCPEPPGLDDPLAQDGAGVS
Description: as §1, §2, §3, §4

The target in a further data set is adenosine A2b receptor (Homo sapiens (Human), UniProt P29275). The data set is described as follows: Indirect determination of adenosine agonism by gene expression (luciferase reporter), A2b cells. It counts as cell-based. The settings on record: CHO cells stably transfected with adenosine A2b receptor, 50% of maximum stimulation.
Sequence of adenosine A2b receptor (P29275 whole entry): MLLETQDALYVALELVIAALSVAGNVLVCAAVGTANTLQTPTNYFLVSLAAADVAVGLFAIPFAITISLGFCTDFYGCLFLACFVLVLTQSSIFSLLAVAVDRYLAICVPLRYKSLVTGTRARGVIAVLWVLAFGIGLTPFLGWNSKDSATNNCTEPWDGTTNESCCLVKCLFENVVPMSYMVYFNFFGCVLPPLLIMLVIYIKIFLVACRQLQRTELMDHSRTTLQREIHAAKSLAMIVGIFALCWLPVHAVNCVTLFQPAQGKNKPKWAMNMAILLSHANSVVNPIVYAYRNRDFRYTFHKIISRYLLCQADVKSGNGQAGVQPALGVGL
Description: as §1, §2, §3, §4

A short description of data set [1]: Determination of the solubility. As to conditions: kinetic from dmso stock. It counts as physicochemical. As to the method: B-8. Determination of the Solubility
• PBS buffer pH 6.5: 90.00 g of NaCl p.a. (for example from Merck, Art. No. 1.06404.1000), 13.61 g of KH2PO4 p.a. (for example from Merck, Art. No. 1.04873.1000) and 83.35 g of 1 N aqueous sodium hydroxide solution (for example from Bernd Kraft GmbH, Art. No. 01030.4000) are weighed into a 1 liter measuring flask, the flask is filled with distilled water to 1 liter and the mixture is stirred for 1 hour. Using 1 N hydrochloric acid (for example from Merck, Art. No. 1.09057.1000) the pH is then adjusted to 6.5. • PEG/water solution (30:70 v/v): 30 ml of polyethylene glycol 400 (for example from Merck, Art. No. 8.17003.1000) and 70 ml of distilled water are homogenized in a 100 ml measuring flask. • PEG/PBS buffer pH 6.5 (80:20 v/v): 80 ml of polyethylene glycol 400 (for example from Merck, Art. No. 8.17003.1000) and 20 ml of PBS buffer pH 6.5 are homogenized in a 100 ml measuring flask. • Dimethyl sulfoxide (for example from Baker, Art. No. 7157.2500) • Distilled water. Preparation of the Starting Solution (Original Solution):
At least 4 mg of the test substance are weighed accurately into a wide-necked 10 mm screw V vial (from Glastechnik Gräfenroda GmbH, Art. No. 8004-WM-H/V15μ) with fitting screw cap and septum, in a pipetting robot DMSO is added to a concentration of 50 mg/ml and the mixture is shaken for 10 minutes.
Preparation of the Calibration Solutions:
Preparation of the Starting Solution for Calibration Solutions (Stock Solution):
With the aid of a pipetting robot, 10 μl of the original solution are transferred into a microtiter plate and made up with DMSO to a concentration of 600 μg/ml. The sample is shaken until everything has gone into solution.
Calibration Solution 1 (20 μg/ml):
1000 μl of DMSO are added to 34.4 μl of the stock solution, and the mixture is homogenized.
Calibration Solution 2 (2.5 μg/ml):
700 μl of DMSO are added to 100 μl of calibration solution 1, and the mixture is homogenized.
Preparation of the Sample Solutions:
Sample Solution for Solubilities of Up to 5 g/liter in PBS Buffer pH 6.5:
10 μl of the original solution are transferred into a microtiter plate, and 1000 μl of PBS buffer pH 6.5 are added.
Sample Solution for Solubilities of Up to 5 g/liter in PEG/Water (30:70):
10 μl of the original solution are transferred into a microtiter plate, and 1000 μl of PEG/water (30:70) are added.
Sample Solution for Solubilities of Up to 5 g/liter in PEG/PBS Buffer pH 6.5 (80:20):
10 μl of the original solution are transferred into a microtiter plate, and 1000 μl of PEG/PBS buffer pH 6.5 (80:20) are added.
The sample solutions prepared in this manner are shaken at 1400 rpm in a temperature-adjustable shaker (for example Eppendorf Thermomixer comfort Art. No. 5355 000.011 with interchangeable block Art. No. 5362.000.019) at 20° C. for 24 hours. In each case 180 μl are taken from these solutions and transferred into Beckman Polyallomer Centrifuge Tubes (Art. No. 343621). These solutions are centrifuged at about 223 000×g for one hour (for example Beckman Optima L-90K Ultracentrifuge with Type 42.2 Ti Rotor at 42 000 rpm). From each of the sample solutions, 100 μl of the supernatant are removed and diluted 1:5 and 1:100 with DMSO. From each dilution, a sample is transferred into a vessel suitable for HPLC analysis.
The samples are analyzed by RP-HPLC. Quantification is carried out using a two-point calibration curve of the test compound in DMSO. The solubility is expressed in mg/liter. Analysis sequence: 1) calibration solution […]; 2) calibration solution […]; 3) sample solution 1:5; 4) sample solution 1:100. […]

The mark [2] stands for this setting: PEG 400/water solution (30:70 v/v), aqueous with cosolvent or surfactant or cyclodextrin, PEG 400/water (30:70 v/v), 20° C., read-out: Solubility [mg/liter] PEG/water solution (30:70 v/v).
Where [3] appears, read: aqueous buffer, PBS buffer pH 6.5, 20° C., read-out: Solubility [mg/liter] PBS buffer.

Sequence of adenosine A1 receptor (P30542 whole entry): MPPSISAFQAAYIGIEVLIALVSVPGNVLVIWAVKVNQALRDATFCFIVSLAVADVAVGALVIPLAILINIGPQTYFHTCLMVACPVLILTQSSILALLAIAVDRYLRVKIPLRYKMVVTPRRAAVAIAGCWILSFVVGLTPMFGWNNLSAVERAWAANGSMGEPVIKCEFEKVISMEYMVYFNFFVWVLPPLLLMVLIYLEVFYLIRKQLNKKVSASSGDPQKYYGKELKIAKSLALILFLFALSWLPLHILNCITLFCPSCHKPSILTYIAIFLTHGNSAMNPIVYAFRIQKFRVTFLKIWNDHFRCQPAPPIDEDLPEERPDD

In the case of `N#Cc1c(N)nc(SCc2ccnc(C(=O)NC3CC3)c2)c(C#N)c1-c1ccccc1` [Example 13], it took 0.08 nM to reach a half-maximal effect at adenosine A1 receptor (EC50). For the same compound, the pEC50 on adenosine A2a receptor was 6.97; at adenosine A2b receptor, 7.34. Moreover, in data set [1] (setting [2]), the solubility at 24 h was found to be 210 mg/L (≈ 492 µM).
Turning to `N#Cc1c(N)nc(SCc2cccc(C(N)=O)c2)c(C#N)c1-c1ccccc1` [Example 33], on adenosine A1 receptor, the EC50 was found to be 0.3 nM. In addition, the figures for the pEC50 on adenosine A2a receptor and at adenosine A2b receptor were 6.93 and 8.41, respectively. Besides, the values for the solubility at 24 h in data set [1] (setting [2]) and in data set [1] (setting [3]) were 53 mg/L (≈ 138 µM) and 5 mg/L (≈ 13 µM), respectively.
Regarding `CNC(=O)c1cc(CSc2nc(N)c(C#N)c(-c3ccc(OCCN)cc3)c2C#N)ccn1` [Example 54, 4-[({6-Amino-4-[4-(2-aminoethoxy)phenyl]-3,5-dicyanopyridin-2-yl}sulfanyl)methyl]-N-methylpyridine-2-carboxamide trifluoroacetate], at adenosine A1 receptor, the response was half-maximal at 0.04 nM (EC50). Further, the values for the pEC50 on adenosine A2a receptor and at adenosine A2b receptor were 6.94 and 6.77, respectively.
Taken in the same sequence, the figures for `CNC(=O)c1cc(CSc2nc(N)c(C#N)c(-c3ccc(OCCNC(=O)[C@H](C)N)cc3)c2C#N)ccn1` [Example 55, 4-{[(4-{4-[2-(L-Alanylamino)ethoxy]phenyl}-6-amino-3,5-dicyanopyridin-2-yl)sulfanyl]methyl}-N-methylpyridine-2-carboxamide trifluoroacetate] were 0.4 nM, 6.40 and 6.57.
Taken in the same sequence, the figures for `N#Cc1c(N)nc(OCc2ccnc(C(=O)NC3CC3)c2)c(C#N)c1-c1ccccc1` [Example 68] were 0.4 nM, 5.76 and 6.36.
For `CNC(=O)c1cc(CSc2nc(N3CC(O)C3)c(C#N)c(-c3ccccc3)c2C#N)ccn1` [Example 70, 4-({[3,5-Dicyano-6-(3-hydroxyazetidin-1-yl)-4-phenylpyridin-2-yl]sulfanyl}methyl)-N-methylpyridine-2-carboxamide], on adenosine A1 receptor, the EC50 was found to be 0.2 nM. Also, the values for the pEC50 on adenosine A2a receptor and on adenosine A2b receptor were 6.57 and 5.84, respectively.
Taken in the same sequence, the figures for `CNC(=O)c1cc(CSc2nc(N(C)CCO)c(C#N)c(-c3ccccc3)c2C#N)ccn1` [Example 75, 4-[({3,5-Dicyano-6-[(2-hydroxyethyl)(methyl)amino]-4-phenylpyridin-2-yl}sulfanyl)methyl]-N-methylpyridine-2-carboxamide] were 0.2 nM, 6.00 and 6.76.
Taken in the same sequence, the figures for `CNC(=O)c1cc(CSc2nc(NCCO)c(C#N)c(-c3ccc(OCCO)nc3)c2C#N)ccn1` [Example 78] were 0.1 nM, 6.45 and 6.41.
The compound `CNC(=O)c1cc(CSc2nc(NC[C@H](O)CO)c(C#N)c(-c3ccccc3)c2C#N)ccn1` [Example 83] displayed an EC50 at adenosine A1 receptor of 0.2 nM. Further, the pEC50 was 5.66 at adenosine A2a receptor and 6.23 on adenosine A2b receptor.
For `CCNC(=O)c1cccc(CSc2nc(N3CCCC3)c(C#N)c(-c3ccc(OCCO)cc3)c2C#N)c1` [Example 98, 3-[({3,5-Dicyano-4-[4-(2-hydroxyethoxy)phenyl]-6-pyrrolidin-1-ylpyridin-2-yl}sulfanyl)methyl]-N-ethylbenzenecarboxamide], the EC50 on adenosine A1 receptor turned out to be 0.3 nM. For the same compound, the pEC50 was 5.81 on adenosine A2a receptor and 6.22 on adenosine A2b receptor.
The compound `N#Cc1c(NC[C@@H](O)CO)nc(SCc2cccc(C(N)=O)c2)c(C#N)c1-c1ccccc1` [Example 99, 3-{[(3,5-Dicyano-6-{[(2R)-2,3-dihydroxypropyl]amino}-4-phenylpyridin-2-yl)sulfanyl]methyl}-benzenecarboxamide] had an EC50 at adenosine A1 receptor of 0.9 nM. Also, the solubility at 24 h in data set [1] (setting [2]) came out at 440 mg/L (≈ 957 µM); in data set [1] (setting [3]) it was 9 mg/L (≈ 19.6 µM).
With `N#Cc1c(N)nc(SCc2cccc(C(=O)NCCN)c2)c(C#N)c1-c1ccccc1` [Example 101, 3-{[(6-Amino-3,5-dicyano-4-phenylpyridin-2-yl)sulfanyl]methyl}-N-(2-aminoethyl)benzenecarboxamide hydrochloride], the EC50 at adenosine A1 receptor was 0.2 nM. Besides, the figures for the pEC50 on adenosine A2a receptor and at adenosine A2b receptor were 6.36 and 6.79, respectively.
